Results from US20250327191A1, “CORROSSION INHIBITOR COMPOSITIONS” (Tata Consultancy Services Limited, priority 2024, published 2025).

Assay: Corrosion inhibition on steel coupons immersed in 1M HCl for 2 hrs
Description: The corrosion inhibitor composition of the example—1 is tested for its corrosion inhibition effect on steel at two temperatures. The steel being the ferrous alloy has the following composition:
The steel coupons are initially abraded with various emery papers of decreasing coarseness i.e. 80, 150, 220, 400 grits to obtain a fine finish surface. The fine finished coupons are cleaned with acetone and then wrapped in paper to avoid any further oxidation and stored in a safe and dry place until further use. The 400 grit finished coupons are immersed in 100 ml 1M HCl solution for 2 hrs at room temperature and at […], to find out the corrosion rate. Similarly, the fine finished coupons are also immersed in 100 ml 1M HCl along with the composition of the example—1 with an effective concentration of inhibitor 200, 500 and 1000 ppm for 2 hrs at room temperatures. […] As, it is also essential for the corrosion inhibitors to perform well in case of higher temperatures. Further, the composition of example—1 is tested at higher temperatures. The below Table-2 provides the information on test results. It is evident from the Table-2 that the inhibition efficiencies at 60° C. is relatively higher than that of room temperature. The average corrosion rates (CR) at room temperature and 60° C. in 1 M HCl without inhibitor for 2 hrs immersion are 1.1081 cm/y and 16.42325 cm/y respectively. The inhibition efficiency (IE) is calculated using the formula: […]

Cc1ccc(C=O)s1 [5-Methyl-2-thiophenecarboxaldehyde, 5-methyl-2-thiophenecarboxaldehyde]
IE (%) (200 ppm, no KI intensifier, 27 °C): 54.03%
IE (%) (500 ppm, no KI intensifier, 27 °C): 63.58%
IE (%) (1000 ppm, 0.1 wt % KI, 27 °C): 84.07%
IE (%) (1000 ppm, 0.25 wt % KI, 27 °C): 90.43%
IE (%) (1000 ppm, 0.5 wt % KI, 27 °C): 92.36%
IE (%) (1000 ppm, 0.5 wt % KI, 60 °C): 95.06%
IE (%) (1000 ppm, no KI intensifier, 27 °C): 72.65%
